In experiment [1] the target is T1, ACC2 (acetyl-CoA carboxylase 2) (Homo sapiens, UniProt O00763).
T1 construct: catalogue no; 50201, amino acids 39—end, expressed in baculovirus-transfected Sf9 insect cells; His (C); purchased BPS Bioscience (San Diego, Calif.) 50201; host or cells: baculovirus-transfected Sf9 insect cells
As to the kind of experiment: Human ACC2 enzyme assay (HTRF ADP detection). To be noted: 20 μM acetyl-CoA, 15 min pre-incubation, 20 min at 22° C.; read-out: ACC 2 IC50. In kind it is biochemical. Background: TR-FRET usually uses a lanthanide donor and a delayed reading to cut background.
Method: The inhibitory activity of the substances of this invention with regard to acetyl-CoA carboxylase 2 (ACC2) was measured using the ACC2 assay described in the paragraphs below. The basic principle of the assay is the measurement of adenosine diphosphate (ADP), which is formed as a by-product, by means of an HTRF®-based competitive immunoassay (HTRF=Homogeneous Time Resolved Fluorescence).
(§1) The amount of complex of d2-labelled ADP and europium cryptate-labelled anti-ADP antibody was then determined by measuring the resonance energy transfer of europium cryptate to d2.

The target of experiment [2] is T2, recombinant human ACC1 (acetyl-CoA carboxylase 1) (Homo sapiens, UniProt Q13085).
T2 construct: NM_198834, amino acids 39—end; FLAG (C); made in house; host or cells: baculovirus-transfected insect cells (Hi5)
As to the kind of experiment: Human ACC1 enzyme assay (HTRF ADP detection).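 Note: ADP by-product quantified by competitive HTRF immunoassay with europium cryptate anti-ADP antibody and d2-labelled ADP, read after 1 h binding at 22 °C, enzyme near 2.5 ng/µl.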 Type of experiment: biochemical. To be noted: 50 μM ATP, 20 μM acetyl-CoA, 15 min pre-incubation, 20 min at 22° C.; read-out: ACC 1 IC50.
Method: The basic principle of the assay is the measurement of adenosine diphosphate (ADP), which is formed as a by-product, by means of an HTRF®-based competitive immunoassay (HTRF=Homogeneous Time Resolved Fluorescence).
as §1

SMILES strings stand for the structures.

T1 sequence (O00763 39-2458 limits assumed): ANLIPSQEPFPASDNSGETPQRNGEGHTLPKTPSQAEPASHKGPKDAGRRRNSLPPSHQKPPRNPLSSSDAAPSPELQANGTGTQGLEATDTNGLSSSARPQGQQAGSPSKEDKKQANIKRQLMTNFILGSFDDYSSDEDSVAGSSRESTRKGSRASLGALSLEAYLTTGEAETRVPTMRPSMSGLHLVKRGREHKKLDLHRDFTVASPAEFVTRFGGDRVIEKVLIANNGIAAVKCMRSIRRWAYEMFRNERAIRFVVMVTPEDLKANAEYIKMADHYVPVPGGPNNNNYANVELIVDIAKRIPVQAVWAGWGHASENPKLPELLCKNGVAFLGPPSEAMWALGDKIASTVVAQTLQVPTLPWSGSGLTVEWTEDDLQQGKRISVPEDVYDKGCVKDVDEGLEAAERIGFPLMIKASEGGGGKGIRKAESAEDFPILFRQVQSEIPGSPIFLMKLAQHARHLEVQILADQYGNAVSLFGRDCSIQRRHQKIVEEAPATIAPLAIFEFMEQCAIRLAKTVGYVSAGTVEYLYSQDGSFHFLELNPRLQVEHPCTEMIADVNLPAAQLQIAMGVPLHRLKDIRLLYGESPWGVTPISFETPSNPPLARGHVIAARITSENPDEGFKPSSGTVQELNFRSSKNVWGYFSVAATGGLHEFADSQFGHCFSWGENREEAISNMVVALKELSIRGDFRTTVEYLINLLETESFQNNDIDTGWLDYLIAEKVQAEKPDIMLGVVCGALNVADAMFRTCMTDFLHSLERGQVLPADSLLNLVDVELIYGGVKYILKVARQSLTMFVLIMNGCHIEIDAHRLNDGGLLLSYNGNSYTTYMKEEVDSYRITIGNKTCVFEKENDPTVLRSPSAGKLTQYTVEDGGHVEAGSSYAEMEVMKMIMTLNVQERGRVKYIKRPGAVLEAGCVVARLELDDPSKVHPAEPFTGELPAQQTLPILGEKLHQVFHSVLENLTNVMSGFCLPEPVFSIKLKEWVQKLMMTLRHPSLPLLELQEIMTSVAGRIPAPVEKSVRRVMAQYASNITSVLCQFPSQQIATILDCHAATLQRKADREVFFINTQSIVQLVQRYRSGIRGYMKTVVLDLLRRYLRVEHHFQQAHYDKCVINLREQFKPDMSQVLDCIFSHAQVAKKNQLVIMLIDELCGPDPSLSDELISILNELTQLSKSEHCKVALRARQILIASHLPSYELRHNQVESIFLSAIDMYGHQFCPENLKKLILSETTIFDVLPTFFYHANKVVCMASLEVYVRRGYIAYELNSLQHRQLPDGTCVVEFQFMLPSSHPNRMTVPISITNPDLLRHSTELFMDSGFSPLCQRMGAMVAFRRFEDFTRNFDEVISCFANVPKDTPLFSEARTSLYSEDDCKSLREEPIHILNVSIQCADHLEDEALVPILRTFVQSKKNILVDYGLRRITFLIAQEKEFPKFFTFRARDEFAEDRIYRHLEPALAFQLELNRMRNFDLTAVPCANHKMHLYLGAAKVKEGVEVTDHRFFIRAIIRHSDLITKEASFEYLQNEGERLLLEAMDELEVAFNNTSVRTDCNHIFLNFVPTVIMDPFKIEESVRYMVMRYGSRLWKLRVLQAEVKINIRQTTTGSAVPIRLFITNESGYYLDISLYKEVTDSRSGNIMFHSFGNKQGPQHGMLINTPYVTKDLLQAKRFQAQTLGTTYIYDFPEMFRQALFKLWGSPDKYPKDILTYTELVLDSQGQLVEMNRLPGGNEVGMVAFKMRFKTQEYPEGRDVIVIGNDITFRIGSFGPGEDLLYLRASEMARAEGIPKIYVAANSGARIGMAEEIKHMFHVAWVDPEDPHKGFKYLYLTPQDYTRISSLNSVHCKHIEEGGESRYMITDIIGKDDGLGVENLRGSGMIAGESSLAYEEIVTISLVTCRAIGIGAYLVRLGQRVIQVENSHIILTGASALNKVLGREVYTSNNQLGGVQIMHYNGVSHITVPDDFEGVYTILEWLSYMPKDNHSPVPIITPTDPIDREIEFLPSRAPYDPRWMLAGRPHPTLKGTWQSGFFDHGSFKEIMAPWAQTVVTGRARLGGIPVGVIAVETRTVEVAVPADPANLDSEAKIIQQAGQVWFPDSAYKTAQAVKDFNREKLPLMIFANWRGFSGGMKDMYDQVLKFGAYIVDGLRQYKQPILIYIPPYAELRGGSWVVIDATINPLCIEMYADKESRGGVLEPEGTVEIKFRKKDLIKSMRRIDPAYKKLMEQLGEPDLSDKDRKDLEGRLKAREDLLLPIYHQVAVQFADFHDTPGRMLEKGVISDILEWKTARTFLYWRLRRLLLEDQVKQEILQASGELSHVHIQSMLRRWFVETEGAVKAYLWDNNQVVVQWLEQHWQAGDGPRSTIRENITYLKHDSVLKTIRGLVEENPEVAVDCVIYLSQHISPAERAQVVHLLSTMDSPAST

With `Cc1ccc(-c2ccc(Cl)cc2)cc1C1=C(O)C2(CCCCCCC2)NC1=O` [Example 1-23, 3-(4′-chloro-4-methylbiphenyl-3-yl)-4-hydroxy-1-azaspiro[4.7]dodec-3-en-2-one], the IC50 is 485 nM in experiment [1] and 584 nM in experiment [2].

For `Cc1ccc(-c2ccc(Cl)cc2)cc1C1=C(O)C2(CCC(C(C)C)CC2)NC1=O` (stereo not drawn) [Example 1-24, 3-(4′-chloro-4-methylbiphenyl-3-yl)-4-hydroxy-8-(propan-2-yl)-1-azaspiro[4.5]dec-3-en-2-one], the IC50 in experiment [1] is 210 nM; in experiment [2], 340 nM.

Turning to `Cc1ccc(-c2ccc(Cl)cc2)cc1C1=C(O)C2(Cc3ccccc3C2)NC1=O` [Example 1-25, 4′-(4′-chloro-4-methylbiphenyl-3-yl)-3′-hydroxy-1,3-dihydrospiro[indene-2,2′-pyrrol]-5′(1′H)-one], the concentration for half-maximal inhibition (IC50) in experiment [1] stood at 3360 nM; in experiment [2], 495 nM.

For the compound `Cc1ccc(-c2ccc(Cl)cc2)cc1C1=C(O)C2(CCCCCC2)NC1=O` [Example 1-26, 3-(4′-chloro-4-methylbiphenyl-3-yl)-4-hydroxy-1-azaspiro[4.6]undec-3-en-2-one], the values for the IC50 in experiment [1] and in experiment [2] were 1250 nM and 540 nM, respectively.

Consider `Cc1ccc(-c2ccc(Cl)cc2)cc1C1=C(O)CN(CC(C)C)C1=O` [Example 1-27, 3-(4′-chloro-4-methylbiphenyl-3-yl)-4-hydroxy-1-(2-methylpropyl)-1,5-dihydro-2H-pyrrol-2-one], for which the results for the IC50 in experiment [1] and in experiment [2] were over 20000 nM and 472 nM, respectively.

As to `CCOC1CCC2(CC1)NC(=O)C(c1cc(-c3ccc(Cl)cc3)ccc1C)=C2O` (stereo not drawn) [Example 1-28, 3-(4′-chloro-4-methylbiphenyl-3-yl)-8-ethoxy-4-hydroxy-1-azaspiro[4.5]dec-3-en-2-one], the IC50 worked out at 192 nM in experiment [1] and 443 nM in experiment [2].

As to `O=C1N[C@]2(CC[C@@H](OCC(F)(F)F)CC2)C(O)=C1c1cc(-c2ccc(Cl)cc2)ccc1Cl` [Example 1-29, (5s,8s)-3-(4,4′-dichlorobiphenyl-3-yl)-4-hydroxy-8-(2,2,2-trifluoroethoxy)-1-azaspiro[4.5]dec-3-en-2-one], the IC50 turned out to be 1900 nM in experiment [1] and 270 nM in experiment [2].

As for `Cc1ccc(-c2ccc(Cl)cc2)c(C)c1C1=C(O)[C@]2(CC[C@H](OCC(F)(F)F)CC2)NC1=O` [Example 1-30, (5s,8s)-3-(4′-chloro-2,4-dimethylbiphenyl-3-yl)-4-hydroxy-8-(2,2,2-trifluoroethoxy)-1-azaspiro[4.5]dec-3-en-2-one], the 50% inhibitory concentration (IC50) in experiment [1] was 300 nM; in experiment [2] it was 542 nM.

As to `Cc1ccc(-c2ccc(F)cc2)c(C)c1C1=C(O)C2(CCC(OCC(F)(F)F)CC2)NC1=O` (stereo not drawn) [Example 1-31, 3-(4′-fluoro-2,4-dimethylbiphenyl-3-yl)-4-hydroxy-8-(2,2,2-trifluoroethoxy)-1-azaspiro[4.5]dec-3-en-2-one], the results for the IC50 in experiment [1] and in experiment [2] were 5960 nM and 963 nM, respectively.

Consider `Cc1ccc(-c2ccc(F)cc2)cc1C1=C(O)C2(CCC(OCC(F)(F)F)CC2)NC1=O` (stereo not drawn) [Example 1-32, 3-(4′-fluoro-4-methylbiphenyl-3-yl)-4-hydroxy-8-(2,2,2-trifluoroethoxy)-1-azaspiro[4.5]dec-3-en-2-one], for which the IC50 in experiment [1] was determined as 14000 nM; in experiment [2], 860 nM.

As for `Cc1ccc(-c2ccc(Cl)cc2)cc1C1=C(O)C2(CCC(OCC(F)(F)F)CC2)NC1=O` (stereo not drawn) [Example 1-33, 3-(4′-chloro-4-methylbiphenyl-3-yl)-4-hydroxy-8-(2,2,2-trifluoroethoxy)-1-azaspiro[4.5]dec-3-en-2-one], the 50% inhibitory concentration (IC50) in experiment [1] worked out at 535 nM; in experiment [2], 359 nM.

As for `Cc1ccc(-c2ccc(Cl)cc2)c(C)c1C1=C(O)C2(CCC3(CCCO3)CC2)NC1=O` (stereo not drawn) [Example 1-34, 11-(4′-chloro-2,4-dimethylbiphenyl-3-yl)-12-hydroxy-1-oxa-9-azadispiro[4.2.4.2]tetradec-11-en-10-one], the 50% inhibitory concentration (IC50) in experiment [1] was found to be 9400 nM; in experiment [2] it was 470 nM.

The IC50 is the concentration that gives 50% inhibition.

Values taken from patent US20120129833A1, “CYCLIC KETOENOLS FOR THERAPY” (BAYER PHARMA AKTIENGESELLSCHAFT, priority 2010, published 2012).
